Assay results from the NIST ThermoML archive (doi:10.1021/acs.jced.5b00367).
Values joined by “and” are separate entries in the source; they are usually repeats but may differ in a detail not shown here. Equal values may be shown once. ± gives the expanded uncertainty stated by the source.

Assay: wn = mass fraction of the nth substance listed
Details: 101 kPa, Liquid, Alternating current cell with electrodes, w1 = 0.01

CCCCCCCCCCCC[N+](CC)(CC)CCCCCCCCCCCC.[Br-] [didodecyldiethylammonium bromide] + O
Details	electrical conductivity
315.45 K	0.0223 ± 0.0089 S/m
315.55 K	0.0224 ± 0.009 S/m
315.65 K	0.0224 ± 0.009 S/m
315.75 K	0.0226 ± 0.009 S/m
315.85 K	0.0227 ± 0.0091 S/m
315.95 K	0.0228 ± 0.0091 S/m
316.05 K	0.0228 ± 0.0091 S/m
316.15 K	0.023 ± 0.0092 S/m
316.25 K	0.023 ± 0.0092 S/m
316.35 K	0.0231 ± 0.0092 S/m
316.45 K	0.0233 ± 0.0093 S/m
316.55 K	0.0234 ± 0.0094 S/m
316.65 K	0.0236 ± 0.0094 S/m
316.85 K	0.0238 ± 0.0095 S/m
317.05 K	0.0239 ± 0.0096 S/m
317.15 K	0.0242 ± 0.0097 S/m
317.25 K	0.0242 ± 0.0097 S/m
317.35 K	0.0244 ± 0.0098 S/m
317.45 K	0.0245 ± 0.0098 S/m
317.55 K	0.0246 ± 0.0098 S/m
317.65 K	0.0247 ± 0.0099 S/m
317.75 K	0.0249 ± 0.01 S/m
317.85 K	0.0249 ± 0.01 S/m
317.95 K	0.0252 ± 0.01 S/m
318.05 K	0.0253 ± 0.01 S/m
318.15 K	0.0253 ± 0.01 S/m
318.25 K	0.0255 ± 0.01 S/m
318.35 K	0.0257 ± 0.01 S/m
318.45 K	0.0259 ± 0.01 S/m
318.55 K	0.0259 ± 0.01 S/m
318.65 K	0.026 ± 0.01 S/m
318.75 K	0.0262 ± 0.01 S/m
318.85 K	0.0263 ± 0.011 S/m
318.95 K	0.0264 ± 0.011 S/m
319.05 K	0.0265 ± 0.011 S/m
319.15 K	0.0266 ± 0.011 S/m
319.25 K	0.0268 ± 0.011 S/m
319.35 K	0.027 ± 0.011 S/m
319.45 K	0.0271 ± 0.011 S/m
319.55 K	0.0272 ± 0.011 S/m
319.65 K	0.0273 ± 0.011 S/m
319.75 K	0.0275 ± 0.011 S/m
319.85 K	0.0276 ± 0.011 S/m
319.95 K	0.0277 ± 0.011 S/m
320.05 K	0.0278 ± 0.011 S/m
320.15 K	0.028 ± 0.011 S/m
320.25 K	0.0282 ± 0.011 S/m
320.35 K	0.0283 ± 0.011 S/m
320.45 K	0.0283 ± 0.011 S/m
320.55 K	0.0286 ± 0.011 S/m
320.65 K	0.0288 ± 0.012 S/m
320.75 K	0.0289 ± 0.012 S/m
320.85 K	0.029 ± 0.012 S/m
320.95 K	0.0292 ± 0.012 S/m
321.05 K	0.0293 ± 0.012 S/m
321.15 K	0.0294 ± 0.012 S/m
321.25 K	0.0296 ± 0.012 S/m
321.35 K	0.0298 ± 0.012 S/m
321.45 K	0.03 ± 0.012 S/m
321.55 K	0.0301 ± 0.012 S/m
321.65 K	0.0303 ± 0.012 S/m
321.75 K	0.0304 ± 0.012 S/m
321.85 K	0.0306 ± 0.012 S/m
321.95 K	0.0308 ± 0.012 S/m
322.15 K	0.031 ± 0.012 S/m
322.25 K	0.0312 ± 0.012 S/m
322.35 K	0.0314 ± 0.013 S/m
322.45 K	0.0315 ± 0.013 S/m
322.55 K	0.0316 ± 0.013 S/m
322.65 K	0.0317 ± 0.013 S/m
322.75 K	0.0318 ± 0.013 S/m
322.85 K	0.0319 ± 0.013 S/m
323.35 K	0.0323 ± 0.013 S/m
323.55 K	0.0324 ± 0.013 S/m
323.75 K	0.0326 ± 0.013 S/m
324.05 K	0.033 ± 0.013 S/m
324.25 K	0.0332 ± 0.013 S/m
324.55 K	0.0334 ± 0.013 S/m
324.75 K	0.0338 ± 0.014 S/m
325.05 K	0.0339 ± 0.014 S/m
325.35 K	0.0344 ± 0.014 S/m
325.55 K	0.0348 ± 0.014 S/m
325.85 K	0.0352 ± 0.014 S/m
326.35 K	0.036 ± 0.014 S/m
326.75 K	0.0368 ± 0.015 S/m
327.35 K	0.0372 ± 0.015 S/m
327.95 K	0.0384 ± 0.015 S/m
328.55 K	0.0392 ± 0.016 S/m
328.85 K	0.0402 ± 0.016 S/m
329.55 K	0.0411 ± 0.016 S/m
330.25 K	0.0426 ± 0.017 S/m
331.05 K	0.0442 ± 0.018 S/m
331.85 K	0.0461 ± 0.018 S/m
332.25 K	0.0461 ± 0.018 S/m
332.95 K	0.0482 ± 0.019 S/m
333.35 K	0.049 ± 0.02 S/m
333.55 K	0.0491 ± 0.02 S/m
333.75 K	0.0491 ± 0.02 S/m
333.85 K	0.0493 ± 0.02 S/m
333.95 K	0.0496 ± 0.02 S/m
334.05 K	0.0501 ± 0.02 S/m
334.15 K	0.0501 ± 0.02 S/m
334.25 K	0.0504 ± 0.02 S/m
334.35 K	0.0505 ± 0.02 S/m
334.45 K	0.0507 ± 0.02 S/m
334.55 K	0.0507 ± 0.02 S/m
334.65 K	0.0509 ± 0.02 S/m
334.75 K	0.0512 ± 0.02 S/m
334.85 K	0.0514 ± 0.021 S/m
334.95 K	0.0514 ± 0.021 S/m
335.05 K	0.0514 ± 0.021 S/m
335.15 K	0.0515 ± 0.021 S/m
335.25 K	0.0519 ± 0.021 S/m
335.35 K	0.052 ± 0.021 S/m
335.45 K	0.0521 ± 0.021 S/m
335.65 K	0.0524 ± 0.021 S/m
335.75 K	0.0526 ± 0.021 S/m
335.95 K	0.0528 ± 0.021 S/m
336.05 K	0.0531 ± 0.021 S/m
336.15 K	0.0531 ± 0.021 S/m
336.25 K	0.0532 ± 0.021 S/m
336.35 K	0.0536 ± 0.021 S/m
336.45 K	0.0537 ± 0.021 S/m
336.55 K	0.0539 ± 0.022 S/m
336.65 K	0.0542 ± 0.022 S/m
336.75 K	0.0544 ± 0.022 S/m
336.85 K	0.0545 ± 0.022 S/m
336.95 K	0.0546 ± 0.022 S/m
337.05 K	0.0548 ± 0.022 S/m
337.15 K	0.0549 ± 0.022 S/m
337.25 K	0.0551 ± 0.022 S/m
337.35 K	0.0552 ± 0.022 S/m
337.45 K	0.0553 ± 0.022 S/m
337.55 K	0.0556 ± 0.022 S/m
337.65 K	0.0556 ± 0.022 S/m
337.75 K	0.0558 ± 0.022 S/m
337.85 K	0.0559 ± 0.022 S/m
337.95 K	0.0563 ± 0.023 S/m
338.05 K	0.0564 ± 0.023 S/m
338.15 K	0.0566 ± 0.023 S/m
338.25 K	0.0568 ± 0.023 S/m
338.35 K	0.0569 ± 0.023 S/m
338.45 K	0.0571 ± 0.023 S/m
338.55 K	0.0573 ± 0.023 S/m
338.65 K	0.0575 ± 0.023 S/m
338.75 K	0.0577 ± 0.023 S/m
338.85 K	0.0578 ± 0.023 S/m
338.95 K	0.058 ± 0.023 S/m
339.05 K	0.0583 ± 0.023 S/m
339.15 K	0.0582 ± 0.023 S/m
339.25 K	0.0585 ± 0.023 S/m
339.35 K	0.0587 ± 0.023 S/m
339.45 K	0.0588 ± 0.024 S/m
339.55 K	0.0591 ± 0.024 S/m
339.65 K	0.0592 ± 0.024 S/m
339.75 K	0.0593 ± 0.024 S/m
339.85 K	0.0596 ± 0.024 S/m
339.95 K	0.0598 ± 0.024 S/m
340.05 K	0.06 ± 0.024 S/m
340.15 K	0.0602 ± 0.024 S/m
340.25 K	0.0605 ± 0.024 S/m
340.35 K	0.0606 ± 0.024 S/m
340.45 K	0.0608 ± 0.024 S/m
340.55 K	0.061 ± 0.024 S/m
340.65 K	0.0612 ± 0.024 S/m
340.75 K	0.0614 ± 0.025 S/m
340.85 K	0.0614 ± 0.025 S/m
340.95 K	0.0616 ± 0.025 S/m
341.05 K	0.062 ± 0.025 S/m
341.15 K	0.062 ± 0.025 S/m
341.25 K	0.0622 ± 0.025 S/m
341.35 K	0.0624 ± 0.025 S/m
341.45 K	0.0625 ± 0.025 S/m
341.55 K	0.0627 ± 0.025 S/m
341.65 K	0.0629 ± 0.025 S/m
341.75 K	0.063 ± 0.025 S/m
341.85 K	0.0633 ± 0.025 S/m
341.95 K	0.0633 ± 0.025 S/m
342.05 K	0.0637 ± 0.025 S/m
342.15 K	0.0639 ± 0.026 S/m
342.25 K	0.064 ± 0.026 S/m
342.35 K	0.0642 ± 0.026 S/m
342.45 K	0.0643 ± 0.026 S/m
342.55 K	0.0645 ± 0.026 S/m
342.65 K	0.0649 ± 0.026 S/m
342.75 K	0.0651 ± 0.026 S/m
342.85 K	0.0654 ± 0.026 S/m
342.95 K	0.0656 ± 0.026 S/m
343.05 K	0.0657 ± 0.026 S/m
343.15 K	0.0658 ± 0.026 S/m
343.25 K	0.0662 ± 0.026 S/m
343.35 K	0.0663 ± 0.027 S/m
343.45 K	0.0663 ± 0.027 S/m
343.55 K	0.0664 ± 0.027 S/m
343.65 K	0.0667 ± 0.027 S/m
343.75 K	0.0667 ± 0.027 S/m
343.85 K	0.067 ± 0.027 S/m
343.95 K	0.0674 ± 0.027 S/m
344.05 K	0.0675 ± 0.027 S/m
344.15 K	0.0674 ± 0.027 S/m
344.25 K	0.0677 ± 0.027 S/m
344.35 K	0.0678 ± 0.027 S/m
344.45 K	0.0679 ± 0.027 S/m
344.55 K	0.0679 ± 0.027 S/m
344.65 K	0.068 ± 0.027 S/m
344.75 K	0.0685 ± 0.027 S/m
344.85 K	0.0686 ± 0.027 S/m
344.95 K	0.0689 ± 0.028 S/m
345.05 K	0.0688 ± 0.028 S/m
345.15 K	0.069 ± 0.028 S/m
345.25 K	0.069 S/m and 0.0692 S/m
345.35 K	0.0692 ± 0.028 S/m
345.45 K	0.0694 ± 0.028 S/m
345.55 K	0.0697 ± 0.028 S/m
345.65 K	0.0699 ± 0.028 S/m
345.75 K	0.0699 ± 0.028 S/m
345.85 K	0.07 ± 0.028 S/m
345.95 K	0.0701 ± 0.028 S/m
346.05 K	0.0702 ± 0.028 S/m
346.15 K	0.0704 ± 0.028 S/m
346.25 K	0.0707 ± 0.028 S/m
346.35 K	0.0709 ± 0.028 S/m
346.45 K	0.0708 ± 0.028 S/m
346.55 K	0.0709 ± 0.028 S/m
346.65 K	0.0712 ± 0.028 S/m
346.75 K	0.0712 ± 0.028 S/m
346.85 K	0.0713 ± 0.029 S/m
